From patent publication US20230374038A1, “MODULATORS OF CYSTIC FIBROSIS TRANSMEMBRANE CONDUCTANCE REGULATOR” (VERTEX PHARMACEUTICALS INCORPORATED, priority 2020, published 2023)

Biological target: CFTR (Homo sapiens, UniProt P13569)
Assay: Membrane Potential Dye, Enteroid Assay B
Type: cell-based
Details: for EC50: read-out: Ent. B EC50
Method: Base medium (ADF+++) consisted of Advanced DMEM/Ham's F12, 2 mM Glutamax, 10 mM HEPES, 1 µg/mL penicillin/streptomycin.
Intestinal enteroid maintenance medium (IEMM) consisted of ADF+++, 1× B27 supplement, 1× N2 supplement, 1.25 mM N-acetyl cysteine, 10 mM Nicotinamide, 50 ng/mL hEGF, 10 nM Gastrin, 1 pg/mL hR-spondin-1, 100 ng/mL hNoggin, TGF-b type 1 inhibitor A-83-01, 100 μg/mL Primocin, […] P38 MAPK inhibitor SB202190.
Bath 1 Buffer consisted of 1 mM MgCl2, 160 mM NaCl, 4.5 mM KCl, 10 mM HEPES, 10 mM Glucose, 2 mM CaCl2).
Chloride Free Buffer consisted of 1 mM Magnesium Gluconate, 2 mM Calcium Gluconate, 4.5 mM Potassium Gluconate, 160 mM Sodium Gluconate, 10 mM HEPES, 10 mM Glucose.
Bath1 Dye Solution consisted of Bath 1 Buffer, 0.04% Pluronic F127, […] Methyl Oxonol, 30 μM CaCCinh-A01, 30 μM Chicago Sky Blue.
Chloride Free Dye Solution consisted of Chloride Free Buffer, 0.04% Pluronic F127, 20 μM Methyl Oxonol, 30 μM CaCCinh-A01, 30 μM Chicago Sky Blue.
Chloride Free Dye Stimulation Solution consisted of Chloride Free Dye Solution, 10 μM forskolin, 100 μM IBMX, and 300 nM Compound III.
Human intestinal epithelial enteroid cells were obtained from the Hubrecht Institute for Developmental Biology and Stem Cell Research, Utrecht, The Netherlands and expanded in T-Flasks as previously described (Dekkers J F, Wiegerinck C L, de Jonge H R, Bronsveld I, Janssens H M, de Winter-de Groot K M, Brandsma A M, de Jong N W M, Bijvelds M J C, Scholte B J, Nieuwenhuis E E S, van den Brink S, Clevers H, van der Ent C K, Middendorp S and M Beekman J M. A functional CFTR assay using primary cystic fibrosis intestinal organoids. Nat Med. 2013 July; 19(7):939-45.).
Cells were recovered in cell recovery solution, collected by centrifugation at 650 rpm for 5 min at 4° C., resuspended in TryPLE and incubated for 5 min at 37° C. Cells were then collected by centrifugation at 650 rpm for 5 min at 4° C. and resuspended in IEMM containing 10 μM ROCK inhibitor (RI). The cell suspension was passed through a 40 μm cell strainer and resuspended at 1×10^6 cells/mL in IEMM containing 10 μM RI. Cells were seeded at 5000 cells/well into multi-well plates and incubated for overnight at 37° C., 95% humidity and 5% CO2 prior to assay.
Enteroid cells were incubated with test compound in IEMM for 18-24 hours at 37° C., 95% humidity and 5% CO2. […] Briefly, cells were washed 5 times in Bath 1 Buffer. Bath 1 Dye Solution was added and the cells were incubated for 25 min at room temperature. Following dye incubation, cells were washed 3 times in Chloride Free Dye Solution. Chloride transport was initiated by addition of Chloride Free Dye Stimulation Solution and the fluorescence signal was read for 15 min. […] Chloride transport was then expressed as a percentage of the chloride transport following treatment with 1 μM (14S)-8-[3-(2-{Dispiro[2.0.2.1]heptan-7-yl}ethoxy)-1H-pyrazol-1-yl]-12,12-dimethyl-2λ^6-thia-3,9,11,18,23-pentaazatetracyclo[17.3.1.111,14.05,10]tetracosa-1(22),5,7,9,19(23),20-hexaene-2,2,4-trione, 3 μM (R)-1-(2,2-difluorobenzo[d][1,3]dioxol-5-yl)-N-(1-(2,3-dihydroxypropyl)-6-fluoro-2-(1-hydroxy-2-methylpropan-2-yl)-1H-indol-5-yl)cyclopropanecarboxamide and 300 nM acute N-[2,4-bis(1,1-dimethylethyl)-5-hydroxyphenyl]-1,4-dihydro-4-oxoquinoline-3-carboxamide triple combination control (% Activity).

CFTR, sequence (P13569 with tags, fused parts or gaps DEL508-508): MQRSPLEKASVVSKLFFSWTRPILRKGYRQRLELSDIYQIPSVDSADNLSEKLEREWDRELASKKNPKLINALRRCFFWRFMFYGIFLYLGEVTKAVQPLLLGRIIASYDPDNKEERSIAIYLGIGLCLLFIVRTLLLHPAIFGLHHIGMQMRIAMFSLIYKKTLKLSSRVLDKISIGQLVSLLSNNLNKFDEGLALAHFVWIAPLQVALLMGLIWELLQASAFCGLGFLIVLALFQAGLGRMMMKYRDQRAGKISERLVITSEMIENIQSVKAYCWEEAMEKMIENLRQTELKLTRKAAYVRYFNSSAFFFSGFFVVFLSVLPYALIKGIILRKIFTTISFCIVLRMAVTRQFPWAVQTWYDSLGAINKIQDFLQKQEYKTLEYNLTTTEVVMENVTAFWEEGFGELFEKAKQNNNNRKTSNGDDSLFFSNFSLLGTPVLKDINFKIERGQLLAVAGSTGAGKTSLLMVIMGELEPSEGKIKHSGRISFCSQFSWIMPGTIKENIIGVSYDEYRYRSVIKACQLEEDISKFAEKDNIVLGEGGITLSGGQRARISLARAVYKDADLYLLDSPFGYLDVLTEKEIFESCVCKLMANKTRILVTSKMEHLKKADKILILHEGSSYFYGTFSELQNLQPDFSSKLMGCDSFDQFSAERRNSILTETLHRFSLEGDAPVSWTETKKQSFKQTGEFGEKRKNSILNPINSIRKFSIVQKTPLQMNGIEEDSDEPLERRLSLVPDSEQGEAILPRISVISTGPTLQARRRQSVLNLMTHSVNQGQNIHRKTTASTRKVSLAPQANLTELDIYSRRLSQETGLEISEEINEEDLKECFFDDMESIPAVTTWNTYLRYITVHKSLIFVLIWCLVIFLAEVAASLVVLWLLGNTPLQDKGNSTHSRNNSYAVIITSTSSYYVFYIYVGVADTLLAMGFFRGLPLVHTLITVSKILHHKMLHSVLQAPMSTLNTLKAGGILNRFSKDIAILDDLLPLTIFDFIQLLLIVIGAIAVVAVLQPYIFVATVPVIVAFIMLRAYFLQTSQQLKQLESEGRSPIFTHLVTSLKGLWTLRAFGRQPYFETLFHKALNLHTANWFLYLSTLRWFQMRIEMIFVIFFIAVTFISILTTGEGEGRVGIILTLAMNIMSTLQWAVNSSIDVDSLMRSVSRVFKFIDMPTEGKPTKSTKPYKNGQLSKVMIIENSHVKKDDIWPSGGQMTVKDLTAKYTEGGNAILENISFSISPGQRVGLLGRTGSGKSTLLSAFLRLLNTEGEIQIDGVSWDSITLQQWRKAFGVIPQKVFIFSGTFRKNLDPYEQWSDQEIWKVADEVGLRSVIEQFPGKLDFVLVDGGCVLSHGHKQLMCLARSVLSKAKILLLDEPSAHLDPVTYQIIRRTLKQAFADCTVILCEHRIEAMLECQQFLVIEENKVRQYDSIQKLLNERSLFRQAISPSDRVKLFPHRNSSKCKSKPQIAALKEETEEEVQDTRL

Row | Ent. B Max Activity | EC50 | SMILES
1 | + (+ is <30%) | – | Cc1cccc(C)c1-c1nc2nc(c1C(=O)O)OC[C@@H](CC(C)C)N(C1CC3(CC3)C1)C(=O)c1cccc(c1)S(=O)(=O)N2 [Compound 168, (11R)-6-(2,6-Dimethylphenyl)-11-isobutyl-2,2,13-trioxo-12-spiro[2.3]hexan-5-yl-9-oxa-2λ^6-thia-3,5,12,19-tetrazatricyclo[12.3.1.14,8]nonadeca-1(18),4(19),5,7,14,16-hexaene-7-carboxylic acid]
2 | +++ (+++ is >60%) | < 1000 nM | Cc1cccc(C)c1-c1nc2nc(c1C)OC[C@@H](CC(C)(C)C)N(C1CC3(CC(NC(=O)OC(C)C)C3)C1)C(=O)c1cccc(c1)S(=O)(=O)N2 (single isomer, unassigned) [Compound 62]
3 | +++ (+++ is >60%) | < 1000 nM | COC(=O)NC1CC2(C1)CC(N1C(=O)c3cccc(c3)S(=O)(=O)Nc3nc(c(C)c(-c4c(C)cccc4C)n3)OC[C@H]1CC(C)(C)C)C2 (single isomer, unassigned) [Compound 64]
4 | + (+ is <30%) | 3000 to 30000 nM | Cc1cccc(C)c1-c1nc2nc(c1C)OC[C@@H](CCC(C)(C)O)NC(=O)c1cccc(c1)S(=O)(=O)N2 [Compound 107, (11R)-6-(2,6-Dimethylphenyl)-11-(3-hydroxy-3-methyl-butyl)-7-methyl-2,2-dioxo-9-oxa-2λ^6-thia-3,5,12,19-tetrazatricyclo[12.3.1.14,8]nonadeca-1(18),4(19),5,7,14,16-hexaen-13-one]
5 | ++ (++ is 30-60%) | 3000 to 30000 nM | Cc1cccc(C)c1-c1nc2nc(c1-c1cnn(CC(C)C)c1)OC[C@@H](C)NC(=O)c1cccc(c1)S(=O)(=O)N2 [Compound 124, (11R)-6-(2,6-Dimethylphenyl)-7-(1-isobutylpyrazol-4-yl)-11-methyl-2,2-dioxo-9-oxa-2λ^6-thia-3,5,12,19-tetrazatricyclo[12.3.1.14,8]nonadeca-1(18),4(19),5,7,14,16-hexaen-13-one]
6 | +++ (+++ is >60%) | < 1000 nM | Cc1cccc(C)c1-c1nc2nc(c1-c1ccccc1)O[C@H](C)CNC(=O)c1cccc(c1)S(=O)(=O)N2 [Compound 119, (10R)-6-(2,6-dimethylphenyl)-10-methyl-2,2-dioxo-7-phenyl-9-oxa-2λ^6-thia-3,5,12,19-tetrazatricyclo[12.3.1.14,8]nonadeca-1(18),4(19),5,7,14,16-hexaen-13-one]
7 | + (+ is <30%) | – | Cc1cccc(C)c1-c1nc2nc(c1-c1ccncc1)O[C@H](C)CNC(=O)c1cccc(c1)S(=O)(=O)N2 [Compound 132]
8 | +++ (+++ is >60%) | < 1000 nM | COC(=O)NC1CC2(C1)CC(N1C(=O)c3cccc(c3)S(=O)(=O)Nc3nc(c(C)c(-c4c(C)cccc4C)n3)OC[C@H]1CC1(C(F)(F)F)CC1)C2 (stereo in doubt) [Compound 86]
9 | +++ (+++ is >60%) | < 1000 nM | Cc1cccc(C)c1-c1nc2nc(c1/C=C/C(C)(C)C)O[C@H](C)CNC(=O)c1cccc(c1)S(=O)(=O)N2 [Compound 121, (10R)-7-[(E)-3,3-Dimethylbut-1-enyl]-6-(2,6-dimethylphenyl)-10-methyl-2,2-dioxo-9-oxa-2λ^6-thia-3,5,12,19-tetrazatricyclo[12.3.1.14,8]nonadeca-1(18),4(19),5,7,14,16-hexaen-13-one]
10 | + (+ is <30%) | – | Cc1cccc(C)c1-c1nc2nc(c1-c1ccn(C)n1)O[C@H](C)CNC(=O)c1cccc(c1)S(=O)(=O)N2 [Compound 129]
11 | +++ (+++ is >60%) | < 1000 nM | COC1CC(N2C(=O)c3cccc(c3)S(=O)(=O)Nc3nc(c(C)c(-c4c(C)cccc4C)n3)OC[C@H]2CC(C)(C)C)C1 (stereo partly drawn) [Compound 84]
12 | + (+ is <30%) | 3000 to 30000 nM | Cc1cccc(C)c1-c1nc2nc(c1-c1cnn(C(C)C)c1)OC[C@@H](C)NC(=O)c1cccc(c1)S(=O)(=O)N2 [Compound 139]
13 | +++ (+++ is >60%) | < 1000 nM | Cc1cccc(C)c1-c1nc2nc(c1C)OC[C@@H](CC(C)(C)C)N(C1CC3(CC(NC(=O)OC(C)C)C3)C1)C(=O)c1cccc(c1)S(=O)(=O)N2 (single isomer, unassigned) [Compound 65]
14 | +++ (+++ is >60%) | < 1000 nM | Cc1ccc(C(F)(F)F)c(C)c1-c1nc2nc(c1C(F)(F)F)OC[C@@H](CC(C)C)NC(=O)c1cccc(c1)S(=O)(=O)N2 [Compound 163, (11R)-6-[2,6-Dimethyl-3-(trifluoromethyl)phenyl]-11-isobutyl-2,2-dioxo-7-(trifluoromethyl)-9-oxa-2λ^6-thia-3,5,12,19-tetrazatricyclo[12.3.1.14,8]nonadeca-1(18),4(19),5,7,14,16-hexaen-13-one]
15 | +++ (+++ is >60%) | < 1000 nM | [H][C@]1(N2C(=O)c3cccc(c3)S(=O)(=O)Nc3nc(c(C)c(-c4c(C)cccc4C)n3)OC[C@H]2CC(C)(C)C)C[C@@]2(C[C@H](C(C)(C)O)C2)C1 (single isomer, unassigned) [Compound 58]
16 | ++ (++ is 30-60%) | 1000 to 3000 nM | Cc1cccc(C)c1-c1nc2nc(c1C1=CCN(C(=O)OC(C)(C)C)CC1)OC[C@@H](C)NC(=O)c1cccc(c1)S(=O)(=O)N2 [Compound 136]
17 | +++ (+++ is >60%) | < 1000 nM | Cc1cccc(C)c1-c1nc2nc(c1C)OC[C@@H](CC1(C(F)(F)F)CC1)N(C1CC3(CC(NC(=O)OC(C)(C)C)C3)C1)C(=O)c1cccc(c1)S(=O)(=O)N2 (stereo in doubt) [Compound 98]
18 | +++ (+++ is >60%) | < 1000 nM | COC(=O)NC1CC2(C1)CC(N1C(=O)c3cccc(c3)S(=O)(=O)Nc3nc(c(C)c(-c4c(C)cccc4C)n3)OC[C@H]1CC(C)C)C2 (stereo in doubt) [Compound 69]
19 | +++ (+++ is >60%) | < 1000 nM | Cc1cccc(C)c1-c1nc2nc(c1C)OC[C@@H](CC(C)(C)O)N(Cc1ccc(C(C)(C)O)cc1)C(=O)c1cccc(c1)S(=O)(=O)N2 [Compound 114]
20 | +++ (+++ is >60%) | < 1000 nM | Cc1cccc(C)c1-c1nc2nc(c1C)OC[C@@H](CC1(C(F)(F)F)CC1)N(C1CC3(CC(N)C3)C1)C(=O)c1cccc(c1)S(=O)(=O)N2 (stereo partly drawn) [Compound 93]
21 | +++ (+++ is >60%) | < 1000 nM | Cc1cccc(C)c1-c1nc2nc(c1C)OC[C@@H](CC1(C(F)(F)F)CC1)N(C1CC3(CC(CO)C3)C1)C(=O)c1cccc(c1)S(=O)(=O)N2 (stereo partly drawn) [Compound 81]
22 | ++ (++ is 30-60%) | < 1000 nM | Cc1cccc(C)c1-c1nc2nc(c1F)OC[C@@H](CC(C)C)N(C1CC3(CCNCC3)C1)C(=O)c1cccc(c1)S(=O)(=O)N2 [Compound 186]
23 | +++ (+++ is >60%) | < 1000 nM | Cc1cccc(C)c1-c1nc2nc(c1/C=C/C(C)(C)C)OC[C@@H](CC(C)C)NC(=O)c1cccc(c1)S(=O)(=O)N2 [Compound 126, (11R)-7-[(1E)-3,3-dimethylbut-1-en-1-yl]-6-(2,6-dimethylphenyl)-11-(2-methylpropyl)-9-oxa-2λ^6-thia-3,5,12,19-tetraazatricyclo[12.3.1.14,8]nonadeca-1(17),4,6,8(19),14(18),15-hexaene-2,2,13-trione]
24 | +++ (+++ is >60%) | < 1000 nM | Cc1cccc(C)c1-c1nc2nc(c1C)OC[C@@H](CC(C)(C)C)N(C1CC3(CC(CO)C3)C1)C(=O)c1cccc(c1)S(=O)(=O)N2 (stereo in doubt) [Compound 79]
